# Laboratory results from patent publication US20250320248A1, “MENAQUINONE-BINDING COMPOUNDS AND METHODS OF USE THEREOF” (The Rockefeller University, priority 2021, published 2025).
# Starred links: 1 amine or outer side, 2 acyl side, 3 side chain; linkers in the order of their positions; H or OH if unused. Positions of bridges follow the written chain, without caps; N, C: chain ends. Non-standard residues stand in square brackets, D forms with d. Residues, ends and D or L forms follow the SMILES beside them. X1 = CCCCC[C@H](CC(=O)[*:1])O[*:2]; GABA = NCCCC(=O)O
# Assays:
# [1] = Isothermal titration calorimetry, DOPC:DOPG liposomes containing MK; type: binding
# Method: (§1) For MK and UQ binding, a 1:1 mixture of 1,2-dioleoyl-sn-glycero-3-phosphocholine (DOPC) and 1,2-dioleoyl-sn-glycero-3-phospho-rac-(1-glycerol) (DOPG) containing either 1.25 mol % MK4 or UQ10 was dissolved in chloroform. A lipid film was generated by drying this material under a stream of nitrogen followed by 2 h of vacuum drying. The resulting film was hydrated using 10 mM HEPES (pH 7.5) with 100 mM NaCl to give a final total lipid concentration of 5 mM. Using an Avanti Mini Extruder, this suspension was passed through a 100 nm polycarbonate filter 10 times. For ITC the sample cell was filled with 400 μL of 25 μM MBA prepared in 10 mM HEPES buffer. The syringe (150 μL) was loaded with a 5 mM lipid suspension with 1.25 mol % MK4 or UQ10. For lipid II binding, 10 mM DOPC containing 1 mol % lipid II was dissolved in chloroform. The resulting film was hydrated using 50 mM Tris (pH 7.5) with 100 mM NaCl and passed through a 100 nm polycarbonate filter 10 times. For ITC the sample cell was filled with 400 μL of 25 μM an MBA prepared in 50 mM Tris buffer. The syringe (150 μL) was loaded with a 10 mM DOPC suspension with 1 mol % lipid II. Data were collected by using an Auto-iTC200 (Malvern Panalytical) and processed by Affinimeter software using the “one binding site” model.
# [2] = Isothermal titration calorimetry, DOPC liposomes containing lipid II; type: binding
# Method: as §1
# S. aureus tn:hemB = assay: MIC against S. aureus hemB transposon insertion mutant; type: cell-based, Staphylococcus aureus
# Method: All antimicrobial assays were run in 96-well microtiter plates using a broth micro-dilution method. Diluted overnight cultures were used in all assays. […] For Enterococcus faecium and Staphylococcus aureus, overnight cultures were diluted 1000- and 10,000-fold in LB broth, respectively. […] For other bacteria, overnight cultures were diluted 5,000-fold in LB broth. 100 μL of each diluted culture was mixed with 100 μL of LB broth containing a syn-BNP at 2-fold serial dilutions across a 96-well microtiter plate row. The final concentration of each compound ranged from 64 to 0.25 μg/mL. Plates were incubated at 37° C. (bacteria) or 30° C. (yeast) for 16 h. The lowest concentration that inhibited visible microbial growth was recorded as the minimum inhibition concentration (MIC). All MIC assays were done in duplicate (n=2).
# [3] = tested on: Enterococcus or Streptococcus strains; assay: MIC against all eight Enterococcus or Streptococcus strains; type: cell-based; conditions: MK-producing and MK-deficient
# Method: (§2) All antimicrobial assays were run in 96-well microtiter plates using a broth micro-dilution method. Diluted overnight cultures were used in all assays. For yeast strains, overnight cultures were diluted 2000-fold in YPD broth. For Enterococcus faecium and Staphylococcus aureus, overnight cultures were diluted 1000- and 10,000-fold in LB broth, respectively. For Streptococcus strains, overnight cultures were diluted 5,000-fold in Brain Heart Infusion (BHI) broth. For other bacteria, overnight cultures were diluted 5,000-fold in LB broth. 100 μL of each diluted culture was mixed with 100 μL of LB broth containing a syn-BNP at 2-fold serial dilutions across a 96-well microtiter plate row. The final concentration of each compound ranged from 64 to 0.25 μg/mL. Plates were incubated at 37° C. (bacteria) or 30° C. (yeast) for 16 h. The lowest concentration that inhibited visible microbial growth was recorded as the minimum inhibition concentration (MIC). All MIC assays were done in duplicate (n=2).
# [4] = tested on: Gram-positive bacteria (Bacillus subtilis, Staphylococcus aureus and Staphylococcus epidermidis); assay: Antibacterial activity against Gram-positive bacteria (broth micro-dilution); type: cell-based
# Method: as §2
# [5] = tested on: methicillin-resistant S. aureus COL; assay: Mouse peritonitis-sepsis model; conditions: single subcutaneous dose 1 h after infection
# Method: Female outbred Swiss Webster mice were used in all experiments. S. aureus COL was grown in Mueller-Hinton Broth at 37° C. overnight and diluted with 7% type II porcine stomach mucin supplemented with 0.2 mM FeNH4-citrate. Cultures were diluted to provide a challenge inoculum of ˜5×10^8 CFU in 0.2 mL. 0.2 mL of the challenge inoculum was administered via intraperitoneal injection.
# [6] = tested on: Mycobacterium tuberculosis
# [7] = tested on: Mtb mc2 6206/mLux in J774A.1 mouse macrophages; type: cell-based, Mycobacterium tuberculosis
# Mycobacterium smegmatis = conditions: reported in literature; cited from earlier work
molecule,measurement,setting,value
CCCCC[C@@H]1CC(=O)N[C@@H](C(C)C)C(=O)N[C@H](CCCNC(=N)N)C(=O)N[C@@H](C(C)C)C(=O)N[C@@H](C)C(=O)N2CCC[C@H]2C(=O)N[C@@H](CC(C)C)C(=O)N[C@H](CCCNC(=N)N)C(=O)N[C@@H](CCC(=O)O)C(=O)N[C@H](Cc2ccc(O)cc2)C(=O)N[C@H](Cc2c[nH]c3ccccc23)C(=O)NCCCC(=O)O1 [MBA3 Gly-4 to L-Ala] (V[dR]VAPL[dR]E[dY][dW][GABA]; linker N-C via X1),ability to interact with MK,[1],completely abrogated
nisin,Kd,[2]; read-out: lipid II binding affinity Kd,0.07 µM
same,MIC difference between wild-type S. aureus and tn:hemB strain,S. aureus tn:hemB,no significant differences in MIC
same,antibacterial activity,[3],active
CN[C@H](CC(C)C)C(=O)N[C@H]1C(=O)N[C@@H](CC(N)=O)C(=O)N[C@H]2C(=O)N[C@H]3C(=O)N[C@H](C(=O)N[C@H](C(=O)O)c4cc(O)cc(O)c4-c4cc3ccc4O)[C@H](O)c3ccc(c(Cl)c3)Oc3cc2cc(c3O[C@@H]2O[C@H](CO)[C@@H](O)[C@H](O)[C@H]2O[C@H]2C[C@](C)(N)[C@H](O)[C@H](C)O2)Oc2ccc(cc2Cl)[C@H]1O [vancomycin],MIC difference between wild-type S. aureus and tn:hemB strain,S. aureus tn:hemB,no significant differences in MIC
same,antibacterial activity,[3],active
"CCCCC[C@@H]1CC(=O)N[C@@H](C(C)C)C(=O)N[C@H](CCC(=O)O)C(=O)N[C@@H](CCCNC(=N)N)C(=O)NCC(=O)N2CCC[C@H]2C(=O)N[C@@H](CC(C)C)C(=O)N[C@H](CCC(N)=O)C(=O)N[C@@H](CCC(=O)O)C(=O)N[C@H](Cc2ccc(O)cc2)C(=O)N[C@H](Cc2c[nH]c3ccccc23)C(=O)NCCCC(=O)O1 [MBA4, alcameb] (V[dE]RGPL[dQ]E[dY][dW][GABA]; linker N-C via X1)",antibacterial activity against Gram-positive bacteria,[4],good Gram-positive antibiosis
lysobactin,MIC difference between wild-type S. aureus and tn:hemB strain,S. aureus tn:hemB,no significant differences in MIC
same,antibacterial activity,[3],active
CCCCC[C@@H]1CC(=O)N[C@@H](C(C)C)C(=O)N[C@H](CCCNC(=N)N)C(=O)N[C@@H](C(C)C)C(=O)NCC(=O)N2CCC[C@H]2C(=O)N[C@@H](CC(C)C)C(=O)N[C@H](CCCNC(=N)N)C(=O)N[C@@H](CCC(=O)O)C(=O)N[C@H](Cc2ccc(O)cc2)C(=O)N[C@H](C)C(=O)NCCCC(=O)O1 [MBA3 D-Trp-10 to D-Ala] (V[dR]VGPL[dR]E[dY][dA][GABA]; linker N-C via X1),lipid II binding,[2],no lipid II binding or similarly low lipid II binding affinities
same,ability to interact with MK,[1],completely abrogated
ramoplanin,MIC difference between wild-type S. aureus and tn:hemB strain,S. aureus tn:hemB,no significant differences in MIC
same,antibacterial activity,[3],active
"CCCCC[C@@H]1CC(=O)N[C@@H](C(C)C)C(=O)N[C@H](CCCNC(=N)N)C(=O)N[C@@H](C(C)C)C(=O)NCC(=O)N2CCC[C@H]2C(=O)N[C@@H](CC(C)C)C(=O)N[C@H](CCCNC(=N)N)C(=O)N[C@@H](CCC(=O)O)C(=O)N[C@H](Cc2ccc(O)cc2)C(=O)N[C@H](Cc2c[nH]c3ccccc23)C(=O)NCCCC(=O)O1 [MBA3, metameb] (V[dR]VGPL[dR]E[dY][dW][GABA]; linker N-C via X1)",mortality of infected mice compared to vehicle,"[5]; 5, 10 and 30 mg/kg",dramatically decreased
same,minimal dose required for 100% survival,[5],10 mg/kg
same,lipid II binding,[2],no lipid II binding or similarly low lipid II binding affinities
same,antibacterial activity against Gram-positive bacteria,[4],good Gram-positive antibiosis
same,activity against Mtb,[6],active
same,MIC,[6]; lowest MIC against MDR Mtb,≥ 0.078 µg/mL
same,relative potency in macrophage assay,[7],most potent
lysocin E,activity against Mycobacterium smegmatis,Mycobacterium smegmatis,active
